In data set [1] the test system is cancer cells. As to conditions: cited from earlier work.
A short description of data set [2]: Phantom study, 3T MRI scanner (relaxivity). The method, then: The measured r1 and r2 relaxivity values of NEMO-103 were 2.0 mM^-1s^-1 and 2.3 mM^-1s^-1, respectively (FIGS. 24d and 24e). The r2/r1 ratio, which is an important parameter for T1 MRI contrast agents, was calculated to be 1.15. […] For comparison, the measured r1 and r2 values of Dotarem® were 4.7 mM^-1s^-1 and 5.2 mM^-1s^-1, respectively, resulting in an r2/r1 ratio of 1.11.

Data set [3] can be described thus: Shoulder MR arthrography image quality assessment, clinical comparative study NEMO-103 vs GBCA. The data set is classed as in vivo, humans. The following applies: supine position, over time. The method, then: FIGS. 25 and 26 illustrate the phase design and image quality assessment method of a clinical comparative study between NEMO-103, a dextran-crosslinked T1 MRI contrast agent, and Dotarem®, a representative clinical gadolinium-based contrast agent (GBCA) for T1 MRI. Phase I refers to MR arthrography (MRA) images acquired within 30 minutes after contrast agent administration. Phase II refers to MRA images acquired between 30 and 60 minutes post-administration, and Phase III refers to MRA images acquired between 110 and 130 minutes post-administration. In Comparison 1, no quantitative or qualitative differences were observed between NEMO-103-based MRA images acquired during Phase I and Phase II (FIG. 27). […] In Comparison 3, which compared NEMO-103-based MRA images from Phase II with GBCA-based MRA images, more prominent differences were observed (FIG. 29).
Amid growing safety concerns surrounding gadolinium-based contrast agents (GBCAs), iron (Fe)-based alternatives have emerged as a subject of active investigation. The present example evaluates the efficacy of NEMO-103 in comparison with a GBCA by assessing contrast-to-noise ratio (CNR) and MR arthrography (MRA) image quality. […] Both contrast agents effectively delineated key anatomical structures, including tissue contrast, sharpness, rotator cuff tendons, labral structures, and adjacent cartilage. […]

The conditions of data set [4]: stated in discussion, according to current reports; cited from earlier work.
In data set [5] the test system is BT-474 human breast cancer xenograft model. Description: In vivo antitumor efficacy in cancer xenograft mouse model (intratumoral injection, tumor volume). Also noted: species or system Balb/c nude mice. The following applies: alone; Doxorubicin 2 mg/kg; TLRA1 agonist 6 nmol/mL (0.3 nmol). The method, then: The antitumor efficacy of the drug was assessed by monitoring changes in tumor volume following administration. Cdex@TLRA1 and Cdex@TLRB1 were administered in a cancer xenograft mouse model to evaluate antitumor immune responses and subsequent tumor cell death.
Balb/c nude mice (6 weeks old) were used to establish a BT-474 human breast cancer xenograft model for in vivo efficacy evaluation. Approximately 1 × 10^6 BT-474 breast cancer cells were mixed with Matrigel at a 1:1 volume ratio and subcutaneously implanted into the dorsal flank of each mouse in a volume of approximately 100 µL.
Once tumor volumes reached approximately 50 mm^3, Cdex@TLRA1 and Cdex@TLRB1 were directly injected into the tumor masses, and tumor growth was monitored over a 2-week period to evaluate drug efficacy. The test substances were administered on days 0, 4, 7, 12, and 15 (see FIG. 18a). To enhance antitumor effects, doxorubicin was administered to all groups except the negative control group on days 1 and 9. A separate "doxorubicin only" group was included for comparative purposes (see FIG. 18b and Table 6).

Molecules are shown by their SMILES.

For `CC[C@@]1(O)C(=O)OCc2c1cc1n(c2=O)Cc2c-1nc1cc(F)c(C)c3c1c2[C@@H](N)CC3` [DXd, exatecan], the “activity in cancer cells compared to SN-38” value in data set [1] is given as “approximately 10 fold”.

In turn, `CNC[C@H](O)[C@@H](O)[C@H](O)[C@H](O)CO.O=C([O-])CN1CCN(CC(=O)[O-])CCN(CC(=O)O)CCN(CC(=O)[O-])CC1.[Gd+3]` [Dotarem] registered a r1 relaxivity in data set [2] of 4.7 mM⁻¹ s⁻¹. For the same compound, the “incidence of axillary pouch obliteration compared to NEMO-103” value in data set [3] is “relatively higher incidence”. In addition, the hydrodynamic size in data set [4] is reported as below 1 nm.

In the case of `COc1cccc2c1C(=O)c1c(O)c3c(c(O)c1C2=O)C[C@@](O)(C(=O)CO)C[C@@H]3O[C@H]1C[C@H](N)[C@H](O)[C@H](C)O1` [Doxorubicin], in data set [5], the tumor growth rate entry is on record as “reduction in tumor growth rate” and the tumor size entry is “no significant decrease in tumor size”.

The record behind these values is patent EP4663206A1, “NEXT-GENERATION ADC LINKER PLATFORM TECHNOLOGY AND POLYSACCHARIDE CROSS-LINKED COLLOIDAL PARTICLE-DRUG CONJUGATE” (Inventera Inc., priority 2023, dated 2024).
